Broadly, the AUC(0-t) is the area under the concentration-time curve up to a stated or last time point. Low readings indicate low exposure, high ones high exposure. By AUC(0-inf) is commonly meant the area under the concentration-time curve extrapolated to infinity. Low values mean less exposure, high ones more exposure. A word on the MRT inf: it is a mean duration of stay, worked out from the concentration-time curve.

Calls of active or inactive are those of the source. The calls are words filed in the database; no cut-off is given here.

We go through 1 molecule from ChEMBL document CHEMBL4251553, “Synthesis, anticancer evaluation and pharmacokinetic study of novel 10-O-phenyl ethers of dihydroartemisinin” (Eur J Med Chem, 2017).

Data set [1] concerns MCF7. The experiment in a line: Cell cycle arrest in human MCF7 cells assessed as accumulation at sub-G1 phase at 0.5 uM after 24 hrs by propidium iodide staining based flow cytometry (reference value: 1.78%). The format is functional. (In general: Flow cytometry measures light scatter and fluorescence of single cells or particles in a stream.)
Data set [2] deals with MCF7. The experiment in a line: Cell cycle arrest in human MCF7 cells assessed as accumulation at G0/G1 phase at 0.5 uM after 24 hrs by propidium iodide staining based flow cytometry (reference value: 57.83%). Type of data set: functional.
The test system of data set [3] is MCF7. Description: Cell cycle arrest in human MCF7 cells assessed as accumulation at sub-G1 phase at 1 uM after 24 hrs by propidium iodide staining based flow cytometry (reference value: 1.78%). Type of data set: functional.
Data set [4] concerns MCF7. Description: Cell cycle arrest in human MCF7 cells assessed as accumulation at G2/M phase at 0.5 uM after 48 hrs by propidium iodide staining based flow cytometry (reference value: 24.26%). Type of data set: functional.
Data set [5] has as its system MCF7. Description: Cell cycle arrest in human MCF7 cells assessed as accumulation at sub-G1 phase at 1 uM after 48 hrs by propidium iodide staining based flow cytometry (reference value: 0.18%). The format is functional.
Data set [6] has as its system NCI/ADR-RES. The experiment in a line: Cell cycle arrest in human MCF7/ADR cells assessed as accumulation at G2/M phase at 0.5 uM after 24 hrs by propidium iodide staining based flow cytometry (reference value: 27.75%). Type of data set: functional.
Data set [7] has as its system NCI/ADR-RES. The experiment in a line: Cell cycle arrest in human MCF7/ADR cells assessed as accumulation at sub-G1 phase at 0.5 uM after 48 hrs by propidium iodide staining based flow cytometry (reference value: 0.25%). Type of data set: functional.
The test system of data set [8] is NCI/ADR-RES. Description: Cell cycle arrest in human MCF7/ADR cells assessed as accumulation at sub-G1 phase at 1 uM after 48 hrs by propidium iodide staining based flow cytometry (reference value: 0.25%). The format is functional.
In data set [9] the test system is NCI/ADR-RES. Description: Cell cycle arrest in human MCF7/ADR cells assessed as accumulation at G0/G1 phase at 1 uM after 48 hrs by propidium iodide staining based flow cytometry (reference value: 38.76%). Type of data set: functional.
Data set [10] deals with NCI/ADR-RES. The experiment in a line: Cell cycle arrest in human MCF7/ADR cells assessed as accumulation at G2/M phase at 1 uM after 48 hrs by propidium iodide staining based flow cytometry (reference value: 31.94%). Type of data set: functional.
In data set [11] the test system is NCI/ADR-RES. Description: Effect on P-gp protein expression in human MCF7/ADR cells at 0.05 to 0.1 uM after 24 to 48 hrs by Western blot analysis. The format is functional, cell-based. A general note: In western blotting, separated proteins are transferred to a membrane and probed.
Data set [12] is described as follows: AUC (0 to t) in Sprague-Dawley rat at 10 mg/kg, iv administered as single dose by LC-MS/MS analysis. Type of data set: ADME, organism-based. The note with it: in vivo.
Data set [13] in a line: AUC (0 to infinity) in Sprague-Dawley rat at 10 mg/kg, iv administered as single dose by LC-MS/MS analysis. Type of data set: ADME, organism-based. The note with it: in vivo. The arrangement: dose 10 mg/kg, route intravenous, time infinity.
The nature of data set [14]: MRT (0 to infinity) in Sprague-Dawley rat at 10 mg/kg, iv administered as single dose by LC-MS/MS analysis. Type of data set: ADME, organism-based. As to conditions: in vivo.
Data set [15] in a line: Plasma concentration in Sprague-Dawley rat at 10 mg/kg, iv administered as single dose measured at 1 hr post dosing by LC-MS/MS analysis. Type of data set: ADME, organism-based.

In the case of `C[C@H]1[C@@H](Oc2ccc(-c3cc(-c4ccccc4)[nH]n3)cc2)O[C@@H]2O[C@@]3(C)CC[C@H]4[C@H](C)CC[C@@H]1[C@@]24OO3`, the Activity in the data set on MCF7 [1] was 0.44%; in the data set with MCF7 [2], 70.95%; with MCF7 [3], 0.56%; in the data set with MCF7 [4] it was 17.38%; with MCF7 [5], 1.44%; in the data set with NCI/ADR-RES [6] it was 26.29%. The Activity is reported as 2.81% in the data set on NCI/ADR-RES [7], 10.99% with NCI/ADR-RES [8], 56.01% in the data set on NCI/ADR-RES [9] and 23.47% in the data set on NCI/ADR-RES [10]. Besides, the result with NCI/ADR-RES [11] was inactive. In data set [12], the exposure AUC(0-t) was determined as 2910 ng·h/mL. This molecule registered an area under the curve AUC(0-inf) in data set [13] of 2920 ng·h/mL. Moreover, the MRT inf in [14] was 2.28 h. The molecule further returned a concentration at 1 h in [15] of 436 ng/mL.
